Experimental data from US6753177B1, “P-glycoproteins and uses thereof” (Becton Dickinson and Company, priority 1999, dated 2004).

Biological target: T1, dog PGP (Canis lupus familiaris, UniProt C0KKU9)
T1 construct: expressed in transfected cells; host or cells: LLC-PK1 cells (ATCC), electroporated with the p222CMV episomal vector and selected with hygromycin B
Test: Polarization of vinblastine transport across dog PGP transfected LLC-PK1 cell monolayers in Transwells
Format: cell-based
Settings: PGP transfected cells, compared with control cells; vinblastine (0.1 uM) transport in Transwells
Source text: Dog PGP cDNA (SEQ ID NO:1) is introduced into a clonal population of LLC-PK1 cells in a vector that confers resistance to hygromycin B. LLC-PK1 cells are obtained from the American Type Culture Collections and are propagated in Medium 199 supplemented to 7% with fetal bovine serum. LLC-PK1 cells are recloned prior to transfection in order to assure homogeneity of the cell population. Briefly, dog PGP cDNA is incorporated into the p222CMV vector. […] The PGP cDNA is under the control of the cytomegalovirus (CMV) immediate early promoter. The vector confers resistance to hygromycin B. Cells (in 0.4 mL) and DNA (10 to 20 μg) were transfected by electroporation using a BTX Electro cell manipulator model 600 using a 2 mm gap cell, 100V, 2500 μF capacitance and 72 ohm resistance. […] Expression of PGP is measured by the polarization of vinblastine (0.1 uM) transport in Transwells™.
LLC-PK1 cell based transport studies are conducted in 24 well Transwells™ (Corning Costar, Catalog number 3415). […] Transport is measured under sink conditions in both the apical to basolateral (A to B) and basolateral to apical (B to A) directions. […] Quantitation of the amount of compound transported is by liquid scintillation counting (vinblastine) or HPLC with UV or mass spectrometric detection.
Functional expression of dog PGP is measured by the polarization of transport of vinblastine.

T1 sequence (C0KKU9 1-1281): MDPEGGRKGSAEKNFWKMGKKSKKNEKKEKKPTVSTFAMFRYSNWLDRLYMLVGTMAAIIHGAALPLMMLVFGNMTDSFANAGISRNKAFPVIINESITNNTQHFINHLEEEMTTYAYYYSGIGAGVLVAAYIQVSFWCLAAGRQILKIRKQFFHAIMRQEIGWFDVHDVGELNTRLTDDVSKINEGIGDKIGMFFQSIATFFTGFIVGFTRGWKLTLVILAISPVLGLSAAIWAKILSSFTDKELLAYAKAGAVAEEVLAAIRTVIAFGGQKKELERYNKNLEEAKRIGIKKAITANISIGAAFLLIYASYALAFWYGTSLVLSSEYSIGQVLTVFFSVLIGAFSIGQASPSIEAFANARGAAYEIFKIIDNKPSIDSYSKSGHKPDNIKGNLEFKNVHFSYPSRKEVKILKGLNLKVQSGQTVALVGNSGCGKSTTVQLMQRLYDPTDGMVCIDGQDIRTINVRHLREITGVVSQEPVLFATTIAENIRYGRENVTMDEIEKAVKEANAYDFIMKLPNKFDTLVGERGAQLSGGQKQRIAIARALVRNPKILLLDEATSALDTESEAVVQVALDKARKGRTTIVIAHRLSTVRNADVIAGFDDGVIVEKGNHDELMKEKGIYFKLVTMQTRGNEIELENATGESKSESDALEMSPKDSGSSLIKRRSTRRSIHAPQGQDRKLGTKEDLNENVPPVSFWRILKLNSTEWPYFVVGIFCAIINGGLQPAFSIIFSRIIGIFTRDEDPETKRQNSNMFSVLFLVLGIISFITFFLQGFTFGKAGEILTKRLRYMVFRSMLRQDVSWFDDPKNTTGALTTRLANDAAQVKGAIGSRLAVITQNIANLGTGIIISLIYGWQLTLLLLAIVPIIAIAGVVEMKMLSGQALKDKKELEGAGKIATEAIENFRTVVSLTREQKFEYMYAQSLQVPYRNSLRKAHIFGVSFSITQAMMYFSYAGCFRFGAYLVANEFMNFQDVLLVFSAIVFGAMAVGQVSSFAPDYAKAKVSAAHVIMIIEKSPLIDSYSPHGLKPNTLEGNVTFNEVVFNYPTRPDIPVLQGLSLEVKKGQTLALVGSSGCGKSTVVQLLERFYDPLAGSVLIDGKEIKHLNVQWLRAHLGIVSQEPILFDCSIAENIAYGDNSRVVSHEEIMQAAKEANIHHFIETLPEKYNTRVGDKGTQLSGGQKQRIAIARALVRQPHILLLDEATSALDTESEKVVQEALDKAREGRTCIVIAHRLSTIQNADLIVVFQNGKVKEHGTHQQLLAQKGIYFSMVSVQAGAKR

- B to A/A to B ratio: much higher ratio
SMILES: CC[C@]1(O)C[C@@H]2CN(CCc3c([nH]c4ccccc34)[C@@](C(=O)OC)(c3cc4c(cc3OC)N(C)[C@H]3[C@@](O)(C(=O)OC)[C@H](OC(C)=O)[C@]5(CC)C=CCN6CC[C@]43[C@@H]65)C2)C1 [vinblastine]
